Literature values, collected in US7452901B2, “Anti-cancer phosphonate analogs” (Gilead Sciences, Inc., priority 2003, dated 2008).

Molecular target: T1, purine nucleotide phosphorylase (Homo sapiens, UniProt P00491)
T1 sequence (P00491 1-289): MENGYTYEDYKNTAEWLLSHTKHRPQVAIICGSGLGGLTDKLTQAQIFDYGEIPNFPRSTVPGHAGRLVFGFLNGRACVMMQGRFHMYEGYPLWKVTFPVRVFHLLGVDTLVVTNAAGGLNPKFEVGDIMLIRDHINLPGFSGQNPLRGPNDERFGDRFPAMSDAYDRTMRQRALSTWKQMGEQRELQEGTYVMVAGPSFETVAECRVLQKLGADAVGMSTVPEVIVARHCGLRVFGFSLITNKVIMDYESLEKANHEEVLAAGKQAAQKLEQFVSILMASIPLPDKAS
Conditions: disclosed at the ACS meeting (2000)

## Nc1nc2c([C@@H](CO)c3ccccc3F)c[nH]c2c(=O)[nH]1 [PNP-405]
  IC50: 20 nM
